Experimental findings from US20210239702A1, “METHODS FOR PREDICTING RESPONSIVENESS OF LUNG CANCER PATIENTS TO HER2-TARGETING THERAPIES” (MEMORIAL SLOAN KETTERING CANCER CENTER, priority 2018, published 2021) are described below.

Experiment [1] relates to HER2 mutant lung cancers. From the text: (§1) Patients with stage 4 or recurrent HER2 mutant lung cancers were enrolled in the cohort, as illustrated in the basket trial scheme in FIG. 1. Other cohorts of this basket trial included HER2 amplified lung, bladder and other solid tumors, as illustrated by FIG. 1. HER2 mutations were identified through next generation sequencing (NGS) including exon 20 insYVMA, insGSP, insTGT, single base pair substitutions L755A, L755S, V777L, V659E, S310F or other likely activating mutations. Other inclusion criteria included age (≥18 years old), Karnofsky performance status (≥70%), measurable disease by Response Evaluation Criteria in Solid Tumors (RECIST) v1.1, and adequate left ventricular, bone marrow, and hepatic function.
Physical examination and safety assessments were performed every 3 weeks. Tumor assessments using contrast enhanced computed tomography of the chest, abdomen, and pelvis were performed at baseline, week 6, week 12, and every 12 weeks thereafter until disease progression was observed. Brain imaging was not routinely performed unless clinically indicated. Left ventricular ejection fraction measurements by echocardiography or multi-gated acquisition scan were performed at baseline then every 3 months. […] Secondary objectives included assessment of progression-free survival (PFS) and toxicity according to the National Cancer Institute Common Terminology Criteria for Adverse Events version 4.1 (NCI CTCAE v4.1). The molecular associations between HER2 mutations, HER2 amplification and HER2 protein expression were examined using different molecular diagnostic assays whenever archival tissue was available. NGS assessed for HER2 mutation and amplification, fluorescence in situ hybridization (FISH) assessed for HER2 amplification, and HER2 protein overexpression was assessed by immunohistochemistry (IHC) and quantitative mass spectrometry. FISH was performed using FDA approved probe sets (PathVysion, Abbott Molecular, Chicago, Ill. and HER2 IQFISH pharmDx, Agilent, Santa Clara, Calif.) and positive HER2 amplification was defined as HER2/CEP17 ratio ≥2.0. HER2 protein by IHC was assessed using the 4B5 Ventana antibody (Ventana Medical Systems, Oro Valley Ariz.). Quantitative HER2 protein by selected reaction monitoring mass spectrometry on fixed-formalin paraffin-embedded tissue was performed using methods previously validated in breast cancers, with ≥740 amol/ug as the cutoff for high HER2 expression (see Nuciforo P., et al., Mol. Oncol., 10:138-147 (2016)).
Target accrual was a minimum of 7 patients (stage 1) and maximum of 18 patients (stage 1 and 2) in each cohort. The primary endpoint was best confirmed overall response rate (ORR) per RECIST v1.1. The Simon's optimal two-stage design was employed with a multiple testing adjusted type I error rate for each cohort. For a targeted agent where higher response rates were expected, a true ORR of ≤10% was considered unacceptable (null hypothesis), whereas a true ORR of ≥40% merited further study (alternative hypothesis). In the first stage, 7 patients were accrued; if there were no responses observed at interim analysis of the 7 patients in a particular cohort, the cohort was closed. Otherwise, 11 additional patients were accrued for a total of 18 patients. […] The overall family-wise error rate at the study level was <10%. The exact 95% CI for ORR was calculated using the Clopper-Pearson method. PFS time was estimated by the Kaplan-Meier method. Follow-up time was calculated from the start of treatment to the most recent patient follow-up assessment.

Experiment [2] relates to HER2-amplified salivary gland cancers. Particulars: FLIM-FRET positive in 3/3.
From the text: as §1

As for ado-trastuzumab emtansine, the “outcome of patients with active untreated brain metastases at enrollment” value in experiment [1] (2 patients, first response assessment) is “both patients had progression of disease systemically and in the central nervous system”. For the same substance, in experiment [1] (3 of 18 patients), the “patients with progression of disease as best response” value is listed as 17%. The “responders among patients pretreated with prior systemic therapy” value in experiment [1] (6 of 15 pretreated patients) worked out at 40%. Also, the “median PFS for the responders” value in experiment [1] (95% CI 4 months to not reached) is given as 6 months. The “median PFS for all patients” value in experiment [1] (N=18, 95% CI 3 to 9 months) is 5 months. Besides, the “overall response rate (ORR, all partial and confirmed)” value in experiment [1] (RECIST v1.1, 3.6 mg/kg IV every 21 days, 18 patients, 95% CI 22-69%) turned out to be 44%. Further, in experiment [1] (in vivo), the “patients who achieved stable disease” value turned out to be 39%. Besides, in experiment [1] (out of 18 patients with ERBB2-mutant lung cancers), the “patients with confirmed radiologic partial response” value turned out to be 8. The “longest PFS observed / durable disease control” value in experiment [1] (patient with stable disease as best response, -27% tumor shrinkage) is on record as not below 11 months. For the same substance, the “median time to response from start of treatment” value in experiment [1] (range 1 to 4 months) stood at 2 months. Moreover, in experiment [1] (range 2 to 9 months), the “median duration of response” value was 4 months. The “response among FLIM-FRET positive patients” value in experiment [2] is given as “all 3 patients responded”.
